# Data from US20160139152A1, “Biosensor Using Cell That Expresses Chemosensory Receptor That Can Detect Sugar, And Alzheimer's Disease Diagnostic Apparatus Comprising Same” (KYUNGPOOK NATIONAL UNIVERSITY INDUSTRY-ACADEMIC COOPERATION …, priority 2013, published 2016).
# Assays:
# Gr5a = target: T1, Gr5a (Drosophila melanogaster, UniProt Q9W497); assay: Voltage change of ISFET biosensor (sensing unit) with fixed drosophila cell line expressing Gr5a; assay type: cell-based; conditions: FIG. 9
# T1 construct: After cloning Gr5a cDNA into a pAC vector; expressed in transfected cells
# T1 sequence (Q9W497 1-444): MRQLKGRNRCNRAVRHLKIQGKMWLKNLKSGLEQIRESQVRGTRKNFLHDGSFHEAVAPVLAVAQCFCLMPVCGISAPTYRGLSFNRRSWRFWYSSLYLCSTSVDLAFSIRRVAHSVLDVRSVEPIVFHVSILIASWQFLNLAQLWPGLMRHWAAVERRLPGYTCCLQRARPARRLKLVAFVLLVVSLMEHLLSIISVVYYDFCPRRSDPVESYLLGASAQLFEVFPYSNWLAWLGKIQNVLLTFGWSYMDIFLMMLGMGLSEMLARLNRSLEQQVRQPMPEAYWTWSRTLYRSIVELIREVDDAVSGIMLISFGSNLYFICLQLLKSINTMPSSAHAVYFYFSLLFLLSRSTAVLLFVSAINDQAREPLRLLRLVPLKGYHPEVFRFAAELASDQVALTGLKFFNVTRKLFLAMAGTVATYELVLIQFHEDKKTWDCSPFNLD
# Protocol: A cell line expressing Gr5a, which is one of drosophila gustatory receptors, was established with Drosophila Expression System (Invitrogen) using Drosophila Schneider 2 (S2) cells that cannot detect sugar (http://tools.invitrogen.com/content/sfs/manuals/des_man.pdf). After cloning Gr5a cDNA into a pAC vector, the S2 cell line was co-transfected with 2 μg of the cloned plasmid and 200 ng of pCoHygro which is a selection vector resistant to hygromycin, using polyethylenimine (PEI) in a Schneider medium (Invitrogen) containing no serum. A stable cell line expressing Gr5a was established by culturing in a medium containing hygromycin every 4 days, at least 6 times. A high concentration of a polycrystalline silicon thin film was deposited on a p-type silicon substrate through a low pressure chemical vapor deposition (LPCVD) vacuum equipment, and a source electrode and a drain electrode were formed spaced away from each other using lithographic and dry etching processes. An oxide layer was formed of a silicon dioxide (SiO2) layer, a hafnium oxide (HfO2) layer located on the silicon dioxide layer, and an aluminum oxide (Al2O3) layer located on the hafnium oxide layer, on the silicon layer. Rapid thermal treatment (at 850° C. for 30 seconds) was conducted under N2/O2 gas atmosphere, in order to activate the source electrode, the drain electrode, and the oxide layer, successively. […]
# S2 cells = assay: Voltage change of ISFET biosensor (reference unit) with fixed S2 cells or general culture media; assay type: cell-based, Drosophila; conditions: FIG. 9
# From the text: A cell line expressing Gr5a, which is one of drosophila gustatory receptors, was established with Drosophila Expression System (Invitrogen) using Drosophila Schneider 2 (S2) cells that cannot detect sugar (http://tools.invitrogen.com/content/sfs/manuals/des_man.pdf). A high concentration of a polycrystalline silicon thin film was deposited on a p-type silicon substrate through a low pressure chemical vapor deposition (LPCVD) vacuum equipment, and a source electrode and a drain electrode were formed spaced away from each other using lithographic and dry etching processes. An oxide layer was formed of a silicon dioxide (SiO2) layer, a hafnium oxide (HfO2) layer located on the silicon dioxide layer, and an aluminum oxide (Al2O3) layer located on the hafnium oxide layer, on the silicon layer. Rapid thermal treatment (at 850° C. for 30 seconds) was conducted under N2/O2 gas atmosphere, in order to activate the source electrode, the drain electrode, and the oxide layer, successively. After the rapid thermal treatment, a metal electrode was deposited by e-beam deposition. Thereafter, a wall structure was constructed with polydimethylsiloxane (PDMS), and an electrolyte was put into the wall structure, to prepare an ISFET based biosensor. A pair ISFET structure was developed capable of sensing by distinguishing the experimental group from the control group, as shown in FIG. 8. […]
structure (smiles),measurement,setting,value
OC[C@H]1O[C@H](O[C@H]2O[C@H](CO)[C@@H](O)[C@H](O)[C@H]2O)[C@H](O)[C@@H](O)[C@@H]1O [trehalose],change in voltage of the pair ISFET depending on the concentration of trehalose,Gr5a,voltage remarkably increases
same,change in voltage of the pair ISFET depending on the concentration of trehalose,S2 cells,voltage changes little
